# Laboratory results taken from patent US10688093B2, “Methods, compositions, and uses of novel Fyn kinase inhibitors” (priority 2015, dated 2020).
# Molecular target: full-length recombinant human FYN A (Homo sapiens (Human), UniProt P06241)
# Test: ADP-Glo Kinase Assay of FYN kinase inhibition
# Assay type: biochemical
# Settings: primary screen, initial compounds
# Excerpt: The chemical library was comprised of the SoftFocus ATP-competitive hinge binding compounds described by Harris, C. J., Hill, R. D., Sheppard, D. W., et al., The Design and Application of Target-Focused Compound Libraries. Combinatorial Chemistry and High Throughput Screening 14:521-31 (2011). The specific pharmacore chemistries included SFK52 comprising 6-[R2]-3-[R1]imidazo[1,2-b] pyridazine compounds, SFK33 comprising N-(3-[R2] imidazo [1,2-b] pyridazin-6-yl) [R1] amine compounds, SFK49 comprising N-(5-[R2] imidazo [2,1-b][1,3,4] thiadiazol-2-yl)[R1]-amine compounds, SFK 40 comprising 5-[R2]-3-[R1] pyridin-2-amine compounds, SFK43 comprising 6-[R2]-3-[R1]imidazo[1,2-a]pyrazine compounds, and SFK63. The chemical structures of the initial 600 potential kinase inhibitors are presented in Table 3, with those chosen for additional analysis presented in Table 4. Comparison of the compounds presented in Table 1 and those of Tables 2, 3 and 4, illustrate the novelty of the chemical structures claimed herein.
# FYN kinase (10 micrograms) was from the FYN A Kinase Enzyme System (V3571, Promega UK Ltd.), a full-length recombinant human FYN A containing an N-terminal GST tag of about 85 kDa, expressed by bacullovirus in […] insect cells, supplied at a concentration of 0.1 microgram/microliter in 5×reaction buffer. The FYN substrate, a 12 amino acid peptide of the sequence […], containing a single tyrosine phosphorylation site, was custom synthesized (Peptide Synthetics, Peptide Protein Research, Fareham, UK) and supplied as a 4 mg/ml aqueous solution. All other reagents were obtained from Sigma (Sigma-Aldrich, Gillingham, Dorset, UK), with the exception of UltraPure ATP (V9102, Promega UK Ltd.) and the ATP-competitive broad spectrum protein kinase inhibitor staurosporine (569397, Merck Millipore, Watford, Hertfordshire, UK), or as otherwise indicated.
# The assay procedure determines the IC50 of each potential FYN kinase inhibitor by measuring the enzyme catalyzed ATP-dependent phosphorylation of the FYN substrate peptide. The ADP-Glo™ Kinase Assay is specifically designed to quantify kinase activity by measuring the ADP produced in the reaction The reaction buffer comprises 40 mM Tris.HCl (pH 7.5), 20 mM MgCl2, 0.1 mg/ml BSA and 5 microM DTT. Individual compounds within the chemical library were dissolved in DMSO at known concentrations. Briefly, 2.5 microliters of reaction buffer containing 3 picograms of FYN kinase and serial dilutions of each potential FYN kinase inhibitor (9 3-fold dilutions of a 10 micromolar top sample) are placed into each well of a 384 well microtiter plate and incubated at room temperature for 30 minutes. An additional 2.5 microliters of reaction buffer containing 100 picograms of the FYN substrate and 12.5 picomoles of ATP are then added to each well and the reaction carried out for 90 minutes at room temperature. The reactions are terminated by addition of 5 microliters of the ADP-Glo™ Reagent component of the ADP-Glo™ Kinase Assay kit to each well. The ADP-Glo™ Reagent comprises an ATP-dependent adenylate cyclase, an inorganic pyrophosphatase and an excess of staurosporine. The adenylate cyclase converts the remaining ATP to cAMP and pyrophospahte, the pyrophosphatase converts the pyrophosphate to phosphate and the staurosporine inhibits the activity of the FYN kinase, the net effect is to remove all residual ATP while preserving the ADP produced by FYN kinase. The terminated reactions are incubated for 40 minutes at room temperature, prior to addition of the Kinase Detection Reagent component of the ADP-Glo™ Kinase Assay kit to each well. The Kinase Detection Reagent comprises pyruvate kinase, phosphoenol pyruvate (PEP), luciferin and luciferase. The pyruvate kinase converts PEP to pyruvate and in the process generates ATP from the residual ADP present in the terminated reaction. […]
# full-length recombinant human FYN A, sequence (P06241 whole entry): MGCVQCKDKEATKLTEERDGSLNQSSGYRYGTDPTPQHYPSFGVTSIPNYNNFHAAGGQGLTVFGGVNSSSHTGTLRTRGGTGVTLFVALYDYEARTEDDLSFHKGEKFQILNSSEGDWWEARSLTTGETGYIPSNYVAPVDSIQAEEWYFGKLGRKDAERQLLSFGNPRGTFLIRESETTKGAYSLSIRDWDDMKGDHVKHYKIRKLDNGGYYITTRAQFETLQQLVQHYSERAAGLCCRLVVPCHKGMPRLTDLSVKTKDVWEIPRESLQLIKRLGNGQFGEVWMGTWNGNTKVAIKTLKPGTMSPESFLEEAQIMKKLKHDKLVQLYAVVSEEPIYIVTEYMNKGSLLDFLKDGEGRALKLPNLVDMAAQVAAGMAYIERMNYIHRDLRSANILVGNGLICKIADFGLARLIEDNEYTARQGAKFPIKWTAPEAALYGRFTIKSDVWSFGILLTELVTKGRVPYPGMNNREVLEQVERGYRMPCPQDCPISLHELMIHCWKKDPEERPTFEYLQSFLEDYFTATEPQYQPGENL
row,Compound,IC50
1,"CCCNc1ccc2ncc(-c3ccc4c(c3)OCO4)n2n1 [229_0226_0068, 3-(1,3-benzodioxol-5-yl)-N-propyl-imidazo[1,2-b]pyridazin-6-amine]",2050 nM
2,"CCCNc1ccc2ncc(-c3ccsc3)n2n1 [229_0226_0074, N-propyl-3-(3-thienyl)imidazo [1,2-b]pyridazin-6-amine]",4040 nM
3,"CCCNc1ccc2ncc(-c3cccc(NC(C)=O)c3)n2n1 [229_0226_0081, N-[3-[6-(propylamino)imidazo[1,2-b]pyridazin-3-yl]phenyl] acetamide]",629 nM
4,"CCCNc1ccc2ncc(-c3ccc(C(=O)O)cc3)n2n1 [229_0226_0140, 4-[6-(propylamino)imidazo[1,2-b]pyridazin-3-yl]benzoic acid]",9770 nM
5,"CCCNc1ccc2ncc(-c3cccc(OC)c3)n2n1 [229_0226_4140, 3-(3-methoxyphenyl)-N-propyl-imidazo[1,2-b]pyridazin-6-amine]",2220 nM
6,"O=C(O)c1ccc(-c2cnc3ccc(NCc4ccc(Cl)c(Cl)c4)nn23)cc1 [229_0227_0140, 4-[6-[(3,4-dichlorophenyl)methylamino]imidazo[1,2-b]pyridazin-3-yl]benzoic acid]",1010 nM
7,"c1cc(-c2cnc3ccc(NCc4ccc5c(c4)OCO5)nn23)ccn1 [229_0236_0069, N-(1,3-benzodioxol-5-ylmethyl)-3-(4-pyridyl)imidazo [1,2-b]pyridazin-6-amine]",380 nM
8,"Nc1cccc(-c2cnc3ccc(NC4CCOCC4)nn23)c1 [229_0242_0005, 3-(3-aminophenyl)-N-tetrahydro-pyran-4-yl-imidazo[1,2-b]pyridazin-6-amine]",746 nM
9,"COc1ccc(-c2cnc3ccc(NC4CCOCC4)nn23)cc1OC [229_0242_0079, 3-(3,4-dimethoxy-phenyl)-N-tetra-hydropyran-4-yl-imidazo[1,2-b]pyridazin-6-amine]",547 nM
10,"CC(=O)Nc1cccc(-c2cnc3ccc(NC4CCOCC4)nn23)c1 [229_0242_0081, N-[3-[6-(tetrahydro-pyran-4-ylamino)imidazo[1,2-b]pyridazin-3-yl]phenyl] acetamide]",588 nM
11,"COc1cc(-c2cnc3ccc(NC4CCOCC4)nn23)cc(OC)c1OC [229_0242_0087, N-tetrahydropyran-4-yl-3-(3,4,5-trimethoxy-phenyl) imidazo[1,2-b]pyridazin-6-amine]",617 nM
12,"COc1cccc(-c2cnc3ccc(NC4CCOCC4)nn23)c1 [229_0242_4140, 3-(3-methoxy-phenyl)-N-tetrahydro-pyran-4-yl-imidazo[l,2-b]pyridazin-6-amine]",870 nM
13,"COc1cc(-c2cnc3ccc(NCCCO)nn23)ccc1O [229_0248_0314, 4-[6-(3-hydroxy-propylamino)imidazo[1,2-b]pyridazin-3-yl]-2-methoxy-phenol]",329 nM
14,"CC(C)[C@@H](CO)Nc1ccc2ncc(-c3cccc(N)c3)n2n1 [229_0254_0005, (2S)-2-[[3-(3-aminophenyl)imidazo[1,2-b]pyridazin-6-yl]amino]-3-methyl-butan-1-ol]",1810 nM

# More lines, in order of falling IC50, values ahead:
row,IC50,Compound
1,10700 nM,"COc1ccc(-c2cnc3ccc(NCc4cccc(Cl)c4)nn23)cc1 [229_0223_0280, N-[(3-chlorophenyl)methyl]-3-(4-methoxyphenyl) imidazo[1,2-b]pyridazin-6-amine]"
2,8340 nM,"COc1ccc(-c2cnc3ccc(NCc4cccc(Cl)c4)nn23)cn1 [229_0223_0311, N-[(3-chlorophenyl)methyl]-3-(6-methoxy-3-pyridyl)imidazo [1,2-b]pyridazin-6-amine]"
3,6450 nM,"c1ccc2oc(-c3cnc4ccc(NCc5ccncc5)nn34)cc2c1 [229_0237_0073, 3-(benzofuran-2-yl)-N-(4-pyridylmethyl) imidazo[1,2-b]pyridazin-6-amine]"
4,5670 nM,"Oc1ccc(-c2cnc3ccc(NCc4ccc5c(c4)OCO5)nn23)cc1 [229_0236_0080, 4-[6-(1,3-benzodioxol-5-ylmethyl-amino)imidazo[1,2-b]pyridazin-3-yl]phenol]"
5,5540 nM,"OCCCNc1ccc2ncc(-c3ccc(Oc4ccccc4)cc3)n2n1 [229_0248_1029, 3-[[3-(4-phenoxyphenyl)imidazo[1,2-b]pyridazin-6-yl]amino] propan-1-ol]"
6,5430 nM,"CCCNc1ccc2ncc(-c3ccc(OC)cc3)n2n1 [229_0226_0280, 3-(4-methoxyphenyl)-N-propyl-imidazo[1,2-b]pyridazin-6-amine]"
7,5110 nM,"OCc1cccc(-c2cnc3ccc(NCc4cccc(Cl)c4)nn23)c1 [229_0223_0291, [3-[6-[(3-chlorophenyl)methylamino]imidazo[1,2-b]pyridazin-3-yl]phenyl] methanol]"
8,4060 nM,"c1ccc(-c2cnc3ccc(NCc4ccncc4)nn23)cc1 [229_0237_0061, 3-phenyl-N-(4-pyridylmethyl) imidazo[1,2-b]pyridazin-6-amine]"
9,4010 nM,"COc1ccc(CNc2ccc3ncc(-c4ccc(O)c(OC)c4)n3n2)cc1 [229_0244_0314, 2-methoxy-4-[6-[(4-methoxyphenyl)methylamino]imidazo[1,2-b]pyridazin-3-yl]phenol]"
10,3520 nM,"COc1cc(-c2cnc3ccc(NCc4cccc(Cl)c4)nn23)ccc1O [229_0223_0314, 4-[6-[(3-chlorophenyl)methylamino]imidazo[1,2-b]pyridazin-3-yl]-2-methoxy-phenol]"
11,3410 nM,"OCCCNc1ccc2ncc(-c3cccc(C(F)(F)F)c3)n2n1 [229_0248_0312, 3-[[3-[3-(trifluoro-methyl)phenyl]imidazo[1,2-b]pyridazin-6-yl]amino] propan-1-ol]"
12,3410 nM,"Nc1ccc(-c2cnc3ccc(NCc4cccc(Cl)c4)nn23)cc1 [229_0223_0333, 3-(4-aminophenyl)-N-[(3-chlorophenyl)methyl]imidazo [1,2-b]pyridazin-6-amine]"
13,3130 nM,"Nc1ccc(-c2cnc3ccc(NC4CCOCC4)nn23)cc1 [229_0242_0333, 3-(4-aminophenyl)-N-tetrahydropyran-4-yl-imidazo[1,2-b]pyridazin-6-amine]"
14,2720 nM,"OCCCNc1ccc2ncc(-c3ccc4[nH]ccc4c3)n2n1 [229_0248_0204, 3-[[3-(1H-indol-5-yl)imidazo[1,2-b]pyridazin-6-yl]amino] propan-1-ol]"
15,2440 nM,"OCc1ccc(-c2cnc3ccc(NCc4ccc(F)cc4)nn23)cc1 [229_0224_0285, [4-[6-[(4-fluorophenyl)methylamino]imidazo[1,2-b]pyridazin-3-yl]phenyl] methanol]"
16,1170 nM,"c1cc2cc(-c3cnc4ccc(NC5CCOCC5)nn34)ccc2[nH]1 [229_0242_0204, 3-(1H-indol-5-yl)-N-tetrahydropyran-4-yl-imidazo[1,2-b]pyridazin-6-amine]"
17,932 nM,"CCCNc1ccc2ncc(-c3cccc(N)c3)n2n1 [229_0226_0005, 3-(3-aminophenyl)-N-propyl-imidazo[1,2-b]pyridazin-6-amine]"
18,930 nM,"CCCNc1ccc2ncc(-c3cccc(O)c3)n2n1 [229_0226_0284, 3-[6-(propylamino)imidazo[1,2-b]pyridazin-3-yl]phenol]"
19,929 nM,"OCCCNc1ccc2ncc(-c3ccc4c(c3)OCO4)n2n1 [229_0248_0068, 3-[[3-(1,3-benzodioxol-5-yl)imidazo[1,2-b]pyridazin-6-yl]amino] propan-1-ol]"
20,519 nM,"CCCNc1ccc2ncc(-c3ccc(OC)c(OC)c3)n2n1 [229_0226_0079, 3-(3,4-dimethoxy-phenyl)-N-propyl-imidazo[1,2-b]pyridazin-6-amine]"
21,367 nM,"CCCNc1ccc2ncc(-c3cccc(C(C)=O)c3)n2n1 [229_0226_4145, 1-[3-[6-(propylamino)imidazo[1,2-b]pyridazin-3-yl]phenyl] ethanone]"
